Measured values as given in patent US5922573A, “IL-1 receptor antagonists with enhanced inhibitory activity” (Dompe' S.p.A., priority 1994, dated 1999).

Legend:
murine thymocytes = assay: Inhibition of IL-1β-induced proliferation of murine thymocytes; format: cell-based, mouse; conditions: for Thymocyte proliferation to IL-1β 30 pg/ml, ID50: murine thymocytes; for Thymocyte proliferation to IL-1β 300 pg/ml, ID50: C3H/HeJ thymocytes with PHA, 72 hours
Method: 1. Proliferation of murine thymocytes: normal thymocytes are obtained by breaking up thymus glands of C3H/HeJ mice (resistant to bacterial endotoxin) aged 4-8 weeks. The thymocytes (5×10^5 cells/well of Cluster^96 plates) are incubated for 72 hours in RPMI-1640 culture medium with addition of antibiotics, L-glutamine, 2-ME, HEPES and 5% foetal calf serum at 37° C. in air with 5% CO2. […] To determine the proliferation of the thymocytes induced by IL-1, at the end of 72 hours of incubation […] of culture medium containing […] of tritiated thymidine are added to each well. After another 18 hours, the cells from each well are harvested onto small glass-fibre disks and the radioactivity incorporated (proportional to the proliferation of the cells) is measured with a β-counter. For determination of the inhibitory capacity of the improved mutants of IL-1ra , the proliferation of the thymocytes is measured in response to the minimum dose of IL-1 that induces optimum proliferation (generally around 0.3 ng/ml) in the absence or in the presence of stepped doses of IL-1ra (control standard) or of the improved mutants. The improved inhibitory activity of the mutants is determined by calculating the shift of the inhibition curve towards the lower doses when compared with the curve of IL-1ra .

IL-1RI = target: T1, IL-1RI (Mus musculus, UniProt P13504); assay: Binding to IL-1RI: displacement of 125I-IL-1β on cells expressing IL-1RI selectively; conditions: displacement of 125I IL-1β equilibrium binding on 10^6 cells; murine thymoma clone EL4-6.1
T1 construct: Cells which express IL-1RI selectively (e.g. the murine thymoma clone EL4-6.1); endogenous in cells; host or cells: EL4-6.1 (murine thymoma clone)
T1 sequence (P13504 20-576): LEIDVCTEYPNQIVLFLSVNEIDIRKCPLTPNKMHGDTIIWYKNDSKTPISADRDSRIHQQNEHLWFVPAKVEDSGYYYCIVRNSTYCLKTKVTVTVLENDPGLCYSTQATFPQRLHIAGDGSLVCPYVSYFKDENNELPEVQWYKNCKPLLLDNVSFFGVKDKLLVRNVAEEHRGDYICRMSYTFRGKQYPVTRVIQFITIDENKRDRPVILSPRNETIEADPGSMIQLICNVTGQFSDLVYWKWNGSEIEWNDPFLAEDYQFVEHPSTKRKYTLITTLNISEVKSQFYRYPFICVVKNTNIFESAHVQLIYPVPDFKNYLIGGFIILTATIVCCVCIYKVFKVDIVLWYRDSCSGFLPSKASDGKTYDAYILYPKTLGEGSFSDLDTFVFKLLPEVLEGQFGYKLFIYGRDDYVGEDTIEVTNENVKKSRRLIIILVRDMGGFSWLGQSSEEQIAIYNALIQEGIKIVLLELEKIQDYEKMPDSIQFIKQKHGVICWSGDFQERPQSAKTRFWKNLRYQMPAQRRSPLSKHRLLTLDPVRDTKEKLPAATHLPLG
Method: (§1) The inhibitory activity of the improved IL-1ra mutants is measured in receptor binding assays, using IL-1ra as the reference standard. Cells which express IL-1RI selectively (e.g. the murine thymoma clone EL4-6.1) and cells which express IL-1RII selectively (e.g. Burkitt's human lymphoma RAJI clone 1H7) are chosen as target cells. The number of receptors per cell and the binding affinity (Kd) in both the lines are calculated from saturation curves obtained by incubating the cells (10^6 cells/test tube in a final volume of 0.1 ml of culture medium with NaN3) with increasing doses of IL-1β labelled with 125I in the presence or absence of a 500-fold molar excess of unlabelled IL-1β (for calculating non-specific binding, generally always less than 5-10%) for the optimum times and at the optimum temperatures for attaining equilibrium (generally 2 hours at room temperature) (Scapigliati et al. FEBS Lett. 243: 394, 1989). To calculate the inhibition activity, tests are conducted by incubating the cells with a concentration of radiolabelled IL-1β corresponding to approximately half of the Kd in the absence or in the presence of stepped doses of IL-1ra (reference standard) or of the improved mutant.
(§2) The improved inhibitory activity of the mutants is determined by calculating the shift of the inhibition curve towards the lower doses when compared with the curve of IL-1ra.

IL-1β [1] = assay: Inhibition of IL-1β-induced neutrophilia in vivo; conditions: neutrophilia induced in the mouse by 150 ng/kg IL-1β; antagonist intraperitoneally at -15 min, 0, +15 min; read four hours after treatment
Method: 2. Induction of neutrophilia: C3H/HeJ mice or mice of some other strain (3 mice/test group) receive stepped doses of IL-1β with a single intraperitoneal administration. The increase of circulating neutrophils induced by IL-1 is evaluated by cytofluorimetry four hours after the treatment.

IL-1RII = target: T2, IL-1RII (Homo sapiens, UniProt P27930); assay: Binding to IL-1RII: displacement of 125I-IL-1β on cells expressing IL-1RII selectively; conditions: displacement of 125I IL-1β equilibrium binding on 10^6 cells
T2 construct: cells which express IL-1RII selectively (e.g. Burkitt's human lymphoma RAJI clone 1H7); endogenous in cells; host or cells: RAJI clone 1H7 (Burkitt's human lymphoma)
T2 sequence (P27930 14-398): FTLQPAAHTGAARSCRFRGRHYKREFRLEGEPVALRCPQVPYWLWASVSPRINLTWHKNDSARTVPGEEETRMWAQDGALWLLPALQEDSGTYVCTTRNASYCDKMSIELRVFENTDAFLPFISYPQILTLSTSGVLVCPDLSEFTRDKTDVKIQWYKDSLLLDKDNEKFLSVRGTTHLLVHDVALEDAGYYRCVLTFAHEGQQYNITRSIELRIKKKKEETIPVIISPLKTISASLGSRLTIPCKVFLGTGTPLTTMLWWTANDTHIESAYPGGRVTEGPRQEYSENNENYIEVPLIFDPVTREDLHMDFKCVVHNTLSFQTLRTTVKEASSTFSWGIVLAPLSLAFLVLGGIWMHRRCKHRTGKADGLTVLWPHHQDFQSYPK
Method: as §1, §2

human osteosarcoma MG-63 = assay: Inhibition of IL-1β-induced IL-6 production in MG-63 cells; format: cell-based; conditions: MG-63 cells stimulated with IL-1 around 0.3 ng/ml, 48 hours
Method: The quantity of IL-6 in the culture supernatants is measured by a commercial ELISA assay or determined in the biological assay of proliferation of 7TD1 cells.

IL-1β [2] = assay: Inhibition of IL-1β-induced hypoglycaemia in vivo; conditions: hypoglycaemia induced in the mouse by 5.0 μg/kg IL-1β, intraperitoneal, serum glucose after two hours
Method: 1. Induction of hypoglycaemia: C3H/HeJ mice or mice of some other strain (3-5 mice/test group) receive stepped doses of IL-1β by intraperitoneal administration. After two hours the animals are killed and the blood is collected for preparation of the serum. The serum glucose content is determined after reaction with glucose oxidase in a commercial calorimetric assay.

[3] = Burkitt's human lymphoma RAJI clone 1H7

IL-1ra: wild type IL-1 receptor antagonist, a mature protein of 152 amino acids, used as reference standard [reference compound]
Thymocyte proliferation to IL-1β 30 pg/ml, ID50 (murine thymocytes): 0.813 ng/mL | Thymocyte proliferation to IL-1β 300 pg/ml, ID50 (murine thymocytes): 4.10 ng/mL | Binding to IL-1RI, ID50 (IL-1RI): 0.34 nM | Neutrophilia, ID100 (IL-1β [1]): 0.225 mg/kg | Binding to IL-1RII, ID50 (IL-1RII; [3]): 19.60 nM | IL-6 production, ID50 (human osteosarcoma MG-63): 3.60 ng/mL | Hypoglycaemia, ID50 (IL-1β [2]): 0.968 mg/kg

MILRA-1: IL-1ra mutant N91→R (arginine in position 91 of the mature protein)
Thymocyte proliferation to IL-1β 300 pg/ml, ID50 (murine thymocytes): 1.78 ng/mL | Binding to IL-1RI, ID50 (IL-1RI): 0.17 nM | Neutrophilia, ID100 (IL-1β [1]): < 0.0225 mg/kg | Binding to IL-1RII, ID50 (IL-1RII; [3]): 13.20 nM | IL-6 production, ID50 (human osteosarcoma MG-63): 0.62 ng/mL | Hypoglycaemia, ID50 (IL-1β [2]): 0.128 mg/kg

MILRA-2: IL-1ra mutant T109→A (alanine in position 109 of the mature protein)
Thymocyte proliferation to IL-1β 300 pg/ml, ID50 (murine thymocytes): 1.75 ng/mL | Binding to IL-1RI, ID50 (IL-1RI): 0.19 nM | Binding to IL-1RII, ID50 (IL-1RII; RAJI clone 1H7, unit as printed in this cell): 1.8 nM | IL-6 production, ID50 (human osteosarcoma MG-63): 1.12 ng/mL

MILRA-3: IL-1ra double mutant N91/T109→R/A
Thymocyte proliferation to IL-1β 30 pg/ml, ID50 (murine thymocytes): 0.285 ng/mL | Binding to IL-1RI, ID50 (IL-1RI): 0.22 nM | Binding to IL-1RII, ID50 (IL-1RII; [3]): 70.70 nM | Hypoglycaemia, ID50 (IL-1β [2]): 0.076 mg/kg
